Assay results taken from publication doi:10.1101/2021.06.14.448287v1, “Plasmodium falciparum protein Pfs16 is a target for transmission-blocking antimalarial drug development” (biorxiv, 2021).

Test system: T1, P. falciparum NF54 stage V male gametocytes
T1 construct: NF54
Test: microbe, parasite or virus in culture
Design: male gamete formation assay (DGFA format), inhibition of exflagellation of stage V gametocytes
Settings: Plasmodium falciparum, NF54, male gamete formation
Description: Yahiya et al. 2021 Supplement Page 26 of 27 345 IC50 determination by male gamete formation assay 346 The male gamete formation assay (MGFA) was adapted from the previously described dual gamete formation assay (DGFA)3 347 to identify male gamete targeted activity. Briefly, compounds 348 were dispensed into 384-well plates using the HP D300 Digital Dispenser in serial dilutions. Single 349 point controls, a DMSO negative control (0.25% final assay volume) and 20 µM DDD01028076 350 positive control, were included across the plate. Maintaining RT, 10 µl ookinete medium was 351 dispensed into each well, followed by addition of 50 µl of stage V NF54 gametocyte culture (day 14 352 post-induction and onwards). […] Plates were then immediately incubated at 4°C 354 for 4 minutes, followed by 28°C for 5 minutes. Table 1. DDD01035881 and derivatives Activity of DDD01035881 and structural analogues as determined in a structure activity relationship study. IC50s depicted represent the inhibition of male gamete viability as determined by the male gamete formation format of the DGFA. Values are expressed as an average ± SEM of 3-8 biological replicates, ≥ 2 technical replicates.[15]

SMILES	IC50 [nM]
O=S(=O)(NCC1(O)CCOc2ccccc21)c1ccccc1Br (stereo not shown) [DDD01028076]	367 ± 60
O=S(=O)(NCC1(O)CCOc2ccccc21)c1ccc(Br)s1 (stereo not shown) [DDD01035881]	292 ± 76
O=S(=O)(NCC1(O)CCOc2ccc(Br)cc21)c1cccc(Br)c1 (stereo not shown) [compound 1, parent molecule 1]	785 ± 48
C#Cc1ccc2c(c1)C(O)(CNS(=O)(=O)c1cccc(N=[N+]=[N-])c1)CCO2 (stereo not shown) [compound 2, probe 2]	3980 ± 211
C#Cc1ccc2c(c1)C(O)(CNS(=O)(=O)c1cccc(Br)c1)CCO2 (stereo not shown) [compound 3, 3]	370 ± 79
C#Cc1cccc(S(=O)(=O)NCC2(O)CCOc3ccccc32)c1 (stereo not shown) [compound 4, 4]	> 1000
C#Cc1ccc2c(c1)C(O)(CN(CCC1(C)N=N1)S(=O)(=O)c1cccc(Br)c1)CCO2 (stereo not shown) [compound 5, 5]	> 25000
O=S(=O)(NCC1(O)CCOc2ccc(O)cc21)c1cccc(Br)c1 (stereo not shown) [compound 6, 6]	> 11000
C=CCOc1ccc2c(c1)C(O)(CNS(=O)(=O)c1cccc(Br)c1)CCO2 (stereo not shown) [compound 7, 7]	> 25000
CCCCn1cc(-c2ccc3c(c2)C(O)(CNS(=O)(=O)c2cccc(Br)c2)CCO3)nn1 (stereo not shown) [compound 9, 9]	> 25000
CN(CC1(O)CCOc2ccccc21)S(=O)(=O)c1cccc(Br)c1 (stereo not shown) [compound 10, 10]	> 10000

Biological target: T2, Pfs16 (Plasmodium falciparum, UniProt Q6ZMA7)
T2 construct: native full-length protein in stage V gametocytes or their Triton X-100 lysate; 157 residues, 16 kDa, two transmembrane domains
T2 sequence (Q6ZMA7 26-157): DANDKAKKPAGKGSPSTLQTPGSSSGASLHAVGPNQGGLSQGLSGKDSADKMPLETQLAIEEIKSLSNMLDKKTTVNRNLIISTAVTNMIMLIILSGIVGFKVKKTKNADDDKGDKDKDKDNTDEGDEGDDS
Test: CETSA melt curve with immunoblot
Assay type: biochemical
Settings: activated stage V gametocyte lysate, 100 uM compound, 1% Triton X-100, pH 7.5; also isothermal dose response at 78.4 °C

SMILES	Tm shift
O=S(=O)(NCC1(O)CCOc2ccccc21)c1ccc(Br)s1 (stereo not shown) [DDD01035881]	DDD01035881 treatment clearly resulted in a positive shift in the Pfs16 melting curve

Biological target: T2, Pfs16
Test: photoaffinity labelling, click capture, pulldown, TMT nLC-MS/MS, in-gel fluorescence and immunoblot
Assay type: cell-based
Settings: live stage V gametocytes, 2.5-10 uM, 254 nm UV; covalent after irradiation

SMILES	photoaffinity labelling, click capture, pulldown, TMT nLC-MS/MS, in-gel fluoresc
C#Cc1ccc2c(c1)C(O)(CNS(=O)(=O)c1cccc(N=[N+]=[N-])c1)CCO2 (stereo not shown) [compound 2, probe 2]	a dose-dependent pulldown of Pfs16 was clearly observed
